According to patent US7612108B2, “2-phenylthiophene derivative” (Astellas Pharma Inc., priority 2004, dated 2009):

system: pyrimidine synthetic pathway; experiment: Pyrimidine synthetic pathway-inhibitory action (influence on BUN level); type: in vivo; details: oral administration of 30 mg/kg
Text: Allopurinol which is an existing hyperuricemia therapeutic drug is known to cause renal dysfunction as an undesirable action. As mentioned previously, since allopurinol has a nucleic acid-like structure, as one cause thereof, it is presumed that it inhibits pyrimidine synthetic pathway. […] Thus, according to the method described in the document, the influence of the compounds of the invention on a BUN level was confirmed.

With `CCCOc1ccc(-c2ccc(C(=O)[O-])s2)cc1C#N.[Na+]` [Example 1, sodium 5-(3-cyano-4-n-propoxyphenyl)thiophene-2-carboxylate] as the compound, how does the “inhibitory action on pyrimidine synthetic pathway (influence on BUN level)” value read?
Its value is “no inhibitory action”.

target: T1, xanthine oxidase (derived from butter milk) (Bos taurus, UniProt P80457); experiment: Xanthine oxidase-inhibitory activity (pterin oxidation, fluorescence); type: biochemical; details: xanthine oxidase 0.03 units/ml, pterin 5 μM
T1 construct: xanthine oxidase (derived from butter milk, manufactured by Sigma); purchased Sigma; host or cells: buttermilk (natural source)
T1 sequence (P80457 whole entry): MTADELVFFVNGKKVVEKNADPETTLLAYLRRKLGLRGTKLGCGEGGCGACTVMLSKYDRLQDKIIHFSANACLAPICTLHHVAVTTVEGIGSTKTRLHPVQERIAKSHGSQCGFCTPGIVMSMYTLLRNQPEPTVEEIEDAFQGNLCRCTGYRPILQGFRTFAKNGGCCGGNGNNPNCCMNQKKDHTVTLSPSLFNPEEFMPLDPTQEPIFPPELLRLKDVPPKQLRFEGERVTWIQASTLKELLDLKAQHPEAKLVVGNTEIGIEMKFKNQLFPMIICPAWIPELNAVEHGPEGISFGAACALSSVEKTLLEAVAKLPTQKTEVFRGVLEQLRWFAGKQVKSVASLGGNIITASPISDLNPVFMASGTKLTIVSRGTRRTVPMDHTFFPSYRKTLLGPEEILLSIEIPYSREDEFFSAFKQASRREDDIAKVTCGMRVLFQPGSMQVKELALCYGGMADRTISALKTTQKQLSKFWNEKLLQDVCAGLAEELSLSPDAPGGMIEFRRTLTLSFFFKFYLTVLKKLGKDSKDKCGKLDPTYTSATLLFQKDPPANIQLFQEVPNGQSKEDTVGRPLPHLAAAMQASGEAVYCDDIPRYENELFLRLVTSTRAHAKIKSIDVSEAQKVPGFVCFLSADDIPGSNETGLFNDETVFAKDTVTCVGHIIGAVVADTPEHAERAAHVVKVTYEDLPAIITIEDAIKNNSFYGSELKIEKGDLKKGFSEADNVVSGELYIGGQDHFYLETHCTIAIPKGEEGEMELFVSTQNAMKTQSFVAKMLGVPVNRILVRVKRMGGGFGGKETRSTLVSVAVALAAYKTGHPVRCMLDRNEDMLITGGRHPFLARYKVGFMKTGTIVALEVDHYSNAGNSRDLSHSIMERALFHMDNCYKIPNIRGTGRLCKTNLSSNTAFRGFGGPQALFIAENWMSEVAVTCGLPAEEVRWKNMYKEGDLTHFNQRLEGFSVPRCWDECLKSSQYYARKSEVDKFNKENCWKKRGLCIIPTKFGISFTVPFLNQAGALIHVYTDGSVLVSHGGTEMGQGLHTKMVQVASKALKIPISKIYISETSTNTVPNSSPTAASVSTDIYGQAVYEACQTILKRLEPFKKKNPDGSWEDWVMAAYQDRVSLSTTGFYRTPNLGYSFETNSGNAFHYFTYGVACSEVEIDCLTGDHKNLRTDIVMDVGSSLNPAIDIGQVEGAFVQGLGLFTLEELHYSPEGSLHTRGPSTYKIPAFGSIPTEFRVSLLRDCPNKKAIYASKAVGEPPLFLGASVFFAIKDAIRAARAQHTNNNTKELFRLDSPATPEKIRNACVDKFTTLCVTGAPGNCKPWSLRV
Method: A test compound was dissolved in DMSO (manufactured by Nakarai) so as to be a concentration of 10 mM and then used after the concentration was adjusted to an aimed one at use.
The evaluation of xanthine oxidase-inhibitory activity of the compound of the invention was carried out using a method described in a document (Free Radic. Biol. Med. 6, 607-615, 1992) with partial modification. Namely, xanthine oxidase (derived from butter milk, manufactured by Sigma) was adjusted to 0.03 units/ml using a 50 mM phosphate buffer and was added to a 96-well plate in an amount of 50 μl/well. Each test compound diluted so as to be a final concentration was added thereto in an amount of 2 μl/well, followed by treatment at room temperature for 20 minutes. Pterin (manufactured by Sigma) was added thereto so as to be a final concentration of 5 μM, followed by reaction at room temperature for 10 minutes. Measurement was performed using a microplate reader saphire (manufactured by Tecan) under conditions of excitation at 345 nm and emission at 390 nm (pterin was oxidized by xanthine oxidase into isoxanthopterin, which emitted a light under the conditions).
The concentration of the test compound at which 50% inhibition was observed (IC50 value) was calculated, the emissions of isoxanthopterin under conditions of the presence or absence of xanthine oxidase being 0% inhibition and 100% inhibition, respectively.

How did the IC50 turn out when `CC(C)COc1ccc(-c2ccc(-c3nnn[nH]3)s2)cc1[N+](=O)[O-]` [Example 5, 5-[5-(4-isobutoxy-3-nitrophenyl)-2-thienyl]-1H-tetrazole] was run?
The IC50 was 9.3 nM.

How did the IC50 turn out when `N#CCCCOc1ccc(-c2ccc(C(=O)O)s2)cc1C#N` [Example 23] was run?
Its IC50 is 13 nM.

With `CC(C)COc1ccc(-c2cc(F)c(C(=O)O)s2)cc1C#N` [Example 4, sodium 5-(3-cyano-4-isobutoxyphenyl)-3-fluorothiophene-2-carboxylate] as the compound, how does the IC50 read?
Its IC50 is 2.2 nM.

`N#Cc1cc(-c2cc(F)c(C(=O)O)s2)ccc1OC/C=C/c1ccccc1` [Example 47] was tested. Which IC50 did it give?
Its IC50 is 3.7 nM.

For `CC(C)COc1ccc(-c2ccc(C(=O)O)s2)cc1[N+](=O)[O-]` [Example 3, 5-(3-nitro-4-isobutoxyphenyl)thiophene-2-carboxylic acid], which IC50 is on record?
Its IC50 is 6.9 nM.

`CC(C)COc1c(F)cc(-c2ccc(C(=O)O)s2)cc1C#N` [Example 54] was tested. Which IC50 did it give?
The IC50 was 1.5 nM.

Which IC50 does the source give for `CC(C)CSc1ccc(-c2ccc(C(=O)O)s2)cc1C#N` [Example 9, sodium 5-[3-cyano-4-(isobutylthio)phenyl]thiophene-2-carboxylate] here?
Its IC50 is 2.9 nM.

`N#Cc1cc(-c2ccc(C(=O)O)s2)ccc1Oc1ccccc1` [Example 34] was tested. Which IC50 did it give?
Its IC50 is 6.3 nM.

For `CC1CCN(c2ccc(-c3ccc(C(=O)O)s3)cc2C#N)CC1` [Example 30], which IC50 is on record?
The IC50 was 2 nM.

With `N#Cc1cc(-c2ccc(C(=O)O)s2)ccc1OCc1ccccc1` [Example 24] as the compound, how does the IC50 read?
Its IC50 is 2.5 nM.

For `CCCOc1ccc(-c2ccc(C(=O)[O-])s2)cc1C#N.[Na+]` [Example 1, sodium 5-(3-cyano-4-n-propoxyphenyl)thiophene-2-carboxylate], which IC50 is on record?
Its IC50 is 3.2 nM.

For `CCCCN(C)c1ccc(-c2ccc(C(=O)O)s2)cc1C#N` [Example 8, sodium 5-{4-[butyl(methyl)amino]-3-cyanophenyl)thiophene-2-carboxylate], which IC50 is on record?
Its IC50 is 4.1 nM.

For `N#Cc1cc(-c2ccc(C(=O)O)s2)ccc1N1CCCCC1` [Example 27], which IC50 is on record?
The IC50 was 1.8 nM.

How did the IC50 turn out when `N#Cc1cc(-c2ccc(C(=O)O)s2)ccc1OCc1cccnc1` [Example 19] was run?
The IC50 was 2.8 nM.

`CC(=O)c1cc(-c2ccc(C(=O)O)s2)ccc1OC1CCCC1` [Example 33] was tested. Which IC50 did it give?
Its IC50 is 5.9 nM.

Which IC50 does the source give for `N#Cc1cc(-c2ccc(C(=O)O)s2)ccc1OCCn1cccc1` [Example 22] here?
The IC50 was 5.1 nM.

system: ICR mice; experiment: Serum uric acid-lowering action after oral administration; type: in vivo; details: after 2 hours from oral administration, 1 mg/kg
Method: A test compound was orally administered compulsorily to ICR mice using an oral sonde. After 2 hours, 6 hours, and, depending on the compound, further 24 hours from the administration, blood was collected from an abdominal aorta and then serum was separated in a usual manner. Serum uric acid was measured on an absorptiometer (SPECTRA MAX 190, manufactured by Molecular Device) by an uricase method using a uric acid-measuring kit (Uric Acid C-TestWako: Wako Pure Chemical Industries, Ltd.) and a uric acid-lowering ratio was determined according to the following equation. Uric acid-lowering ratio (%)=(Uric acid level of control animal−Uric acid level of test compound-administered animal)×100/Uric acid level of control animal

`CCCOc1ccc(-c2ccc(C(=O)[O-])s2)cc1C#N.[Na+]` [Example 1, sodium 5-(3-cyano-4-n-propoxyphenyl)thiophene-2-carboxylate] was tested. Which uric acid-lowering ratio did it give?
The uric acid-lowering ratio was 66%.

system: male Wistar rats; experiment: Trinitrobenzenesulfonic acid (TNBS)-induced enteritis-inhibitory action; type: in vivo, rat; details: 3 mg/kg oral once a day, 21st day
Method: The effectiveness of the compound of the invention on an enteritis model can be also evaluated by a model using trinitrobenzenesulfonic acid (TNBS) as an inducing agent instead of acetic acid (Cell. Mol. Biol, 38, 189-199, 1992). Thus, referring to the method described in the report, the enteritis-suppressing action of the compound of the invention was evaluated.
Namely, TNBS or physiological saline as a normal group was administered into the rectum of male Wistar rats of 200 to 250 g. Thereafter, a test compound or 0.5% methyl cellulose (control group) was orally administered once a day and dissection was performed on each administered group on 21st day. A part of the large intestine 2 to 7 cm from the anus side was cut out and incised. After feces were removed by means of tweezers, the part was washed and a score of morbid conditions was evaluated and tissue weight was measured. The score of morbid conditions and a tissue weight increase-suppressing ratio were calculated as in the evaluation method of the above acetic acid-induced enteritis-suppressing action.

With `CCCOc1ccc(-c2ccc(C(=O)[O-])s2)cc1C#N.[Na+]` [Example 1, sodium 5-(3-cyano-4-n-propoxyphenyl)thiophene-2-carboxylate] as the compound, how does the “suppression of intestinal tissue weight increase” value read?
The value was no less than 70%.
